Literature values in article PMC9164236 (ACS Organic & Inorganic Au, 2022).

In the case of `CC[C@@H](C(=O)[C@@H](C)[C@@H](O)[C@H](C)[C@@H]1O[C@@H]([C@@H](CC)C(=O)O)CC[C@@H]1C)[C@H]1O[C@]2(C=C[C@@H](O)[C@]3(CC[C@@](C)([C@H]4CC[C@](O)(CC)[C@H](C)O4)O3)O2)[C@H](C)C[C@@H]1C` [Sal, Salinomycin], the “Reduction of the proportion of CSCs relative to paclitaxel” value (breast CSCs) is given as greater than 100 fold and the “Stability in the presence of iron(III) chloride over time” value is given as “degrade”.
